Assay results as given in ChEMBL document CHEMBL5316326, “Discovery of a Novel Covalent EZH2 Inhibitor Based on Tazemetostat Scaffold for the Treatment of Ovarian Cancer” (J Med Chem, 2023).
Activity calls are given as the source filed them. The calls are words filed in the database; no cut-off is given here.

Key:
[1] = Antiproliferative activity against human COV362 cells assessed as inhibition of cell proliferation incubated for 72 hrs by MTT assay; assay type: functional, cell-based; conditions: COV362, 72 h
A2780 [2] = experiment: Inhibition of colony formation in human A2780 cells assessed as reduction in number of colonies at 0.25 to 10 uM incubated for 14 days with medium change every 3 days by crystal violet staining method; assay type: functional, cell-based; conditions: dose 0.25-10 µM, time 14.0 day
[3] = Toxicity in BALB/C nude mouse xenografted with human PA-1 cells assessed as pathological changes in serum biochemical values at 75 to 150 mg/kg,po BID for 21 days; assay type: organism-based; conditions: in vivo, 504 h, dose 75-150 mg/kg, time 21 day
[4] = Tmax in Sprague-Dawley rat at 5 mg/kg, iv and measured upto 24 hrs by LC-MS/MS analysis; assay type: ADME, organism-based; conditions: in vivo
[5] = Cmax in Sprague-Dawley rat at 5 mg/kg, iv and measured upto 24 hrs by LC-MS/MS analysis; assay type: ADME, organism-based; design: dose 5 mg/kg, time < 24 hrs, route iv; conditions: in vivo
[6] = Tmax in Sprague-Dawley rat at 100 mg/kg, po and measured upto 24 hrs by LC-MS/MS analysis; assay type: ADME, organism-based; conditions: in vivo
[7] = Volume of distribution at steady state in Sprague-Dawley rat at 5 mg/kg, iv and measured upto 24 hrs by LC-MS/MS analysis; assay type: ADME, organism-based; conditions: in vivo
A2780 [8] = experiment: Antiproliferative activity against human A2780 cells assessed as inhibition of cell proliferation incubated for 72 hrs by MTT assay; assay type: functional, cell-based; conditions: A2780, 72 h
PA-1 [9] = experiment: Antitumor activity against human PA-1 cells xenografted in BALB/C nude mouse assessed as tumor growth inhibition at 75 mg/kg,po BID for 21 days; assay type: functional; conditions: PA-1, 504 h, time 21 day, read-out: TGI
[10] = target: T1, Histone-lysine N-methyltransferase EZH2 (Homo sapiens, UniProt Q15910); experiment: Binding affinity to wild type recombinant EZH2 (494 to 737 residues) (unknown origin) expressed in Escherichia coli assessed as adduct formation incubated for 2 hrs by LC-MS analysis
T1 sequence (Q15910 whole entry, looked up, the tested form may be a part): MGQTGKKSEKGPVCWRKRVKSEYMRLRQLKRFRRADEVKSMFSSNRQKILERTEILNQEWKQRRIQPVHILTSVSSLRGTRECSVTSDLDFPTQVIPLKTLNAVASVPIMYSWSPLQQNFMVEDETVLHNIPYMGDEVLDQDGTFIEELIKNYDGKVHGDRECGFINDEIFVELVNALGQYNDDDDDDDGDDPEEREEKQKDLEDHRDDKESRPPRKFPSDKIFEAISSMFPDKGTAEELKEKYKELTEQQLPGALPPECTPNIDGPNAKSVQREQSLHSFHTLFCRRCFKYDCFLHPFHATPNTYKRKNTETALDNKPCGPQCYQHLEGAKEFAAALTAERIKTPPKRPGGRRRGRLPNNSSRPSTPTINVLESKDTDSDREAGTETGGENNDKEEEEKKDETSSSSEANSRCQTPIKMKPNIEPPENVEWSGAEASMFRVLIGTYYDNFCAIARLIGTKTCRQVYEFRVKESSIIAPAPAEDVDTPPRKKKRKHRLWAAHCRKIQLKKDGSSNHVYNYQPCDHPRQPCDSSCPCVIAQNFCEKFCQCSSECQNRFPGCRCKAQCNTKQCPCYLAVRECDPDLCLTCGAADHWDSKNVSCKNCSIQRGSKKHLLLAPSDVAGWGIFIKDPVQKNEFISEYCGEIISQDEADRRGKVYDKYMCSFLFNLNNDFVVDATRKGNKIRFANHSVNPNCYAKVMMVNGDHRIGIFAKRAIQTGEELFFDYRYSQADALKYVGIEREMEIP

PA-1 [11] = experiment: Inhibition of colony formation in human PA-1 cells assessed as reduction in number of colonies at 0.25 to 10 uM incubated for 14 days with medium change every 3 days by crystal violet staining method; assay type: functional, cell-based; conditions: dose 0.25-10 µM, time 14.0 day
[12] = target: Protein arginine N-methyltransferase 5 (Homo sapiens) (UniProt O14744); experiment: Inhibition of PRMT5 (unknown origin) at 1 to 10 uM by AlphaLlSA assay; conditions: dose 1-10 µM
Sequence of Protein arginine N-methyltransferase 5 (Homo sapiens) (O14744 whole entry): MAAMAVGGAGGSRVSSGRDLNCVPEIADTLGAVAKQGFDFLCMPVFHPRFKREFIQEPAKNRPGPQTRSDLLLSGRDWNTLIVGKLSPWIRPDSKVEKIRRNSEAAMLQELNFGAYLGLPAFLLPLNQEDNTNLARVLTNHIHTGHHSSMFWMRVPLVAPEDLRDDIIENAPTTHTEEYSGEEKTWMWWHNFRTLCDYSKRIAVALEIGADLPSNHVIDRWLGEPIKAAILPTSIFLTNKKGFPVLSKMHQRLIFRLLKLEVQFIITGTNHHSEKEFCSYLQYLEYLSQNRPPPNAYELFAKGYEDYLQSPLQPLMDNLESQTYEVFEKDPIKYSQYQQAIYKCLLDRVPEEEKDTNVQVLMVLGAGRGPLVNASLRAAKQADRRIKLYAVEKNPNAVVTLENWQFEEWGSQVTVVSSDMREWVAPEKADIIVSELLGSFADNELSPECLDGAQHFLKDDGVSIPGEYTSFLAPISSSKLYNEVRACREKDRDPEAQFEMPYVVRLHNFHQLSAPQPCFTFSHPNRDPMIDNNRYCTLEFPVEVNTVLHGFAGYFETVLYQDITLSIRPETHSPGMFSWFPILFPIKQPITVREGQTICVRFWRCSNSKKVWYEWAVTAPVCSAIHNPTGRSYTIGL

[13] = target: T1, Histone-lysine N-methyltransferase EZH2; experiment: Inhibition of EZH2 methyltransferase activity in human PA-1 cells assessed as reduction in H3K27me3 level at 10 uM and measured upto 4 days by Western blot analysis; assay type: cell-based; conditions: time <= 4.0 day, TDE = time-dependent effect
[14] = tested on: Histone-lysine N-methyltransferase EZH2 (Homo sapiens), Q15910 [A677G]; experiment: Inhibition of EZH2 […] mutant (unknown origin) at 1 nM by AlphaLlSA assay
Sequence of Histone-lysine N-methyltransferase EZH2 (Homo sapiens), Q15910 [A677G] (Q15910 whole entry A677G): as the sequence (Q15910 whole entry, looked up, the tested form may be a part) above, with A677G counted along it

[15] = Oral bioavailability in Sprague-Dawley rat at 100 mg/kg and measured upto 24 hrs by LC-MS/MS analysis; assay type: ADME, organism-based; conditions: in vivo
[16] = Toxicity in BALB/C nude mouse xenografted with human PA-1 cells assessed as body weight change at 75 to 150 mg/kg,po BID for 21 days; assay type: organism-based; conditions: in vivo, 504 h, dose 75-150 mg/kg, time 21 day
[17] = target: T1, Histone-lysine N-methyltransferase EZH2; experiment: Inhibition of EZH2 methyltransferase activity in human PA-1 cells assessed as reduction in H3K27me3 level at 0.3 to 5 uM incubated for 3 days by Western blot analysis; assay type: cell-based; conditions: dose 0.3-5 µM, time 3.0 day
PA-1 [18] = experiment: Induction of apoptosis in human PA-1 cells assessed as late apoptotic cells at 40 uM incubated for 48 hrs by AnnexinV-FITC/PI staining based flow cytometry analysis (Rvb= 3.09%); assay type: functional
[19] = AUCt in Sprague-Dawley rat at 100 mg/kg, po and measured upto 24 hrs by LC-MS/MS analysis; assay type: ADME, organism-based; design: time < 24 hrs, dose 100 mg/kg, route po; conditions: in vivo
PA-1 [20] = experiment: Inhibition of colony formation in human PA-1 cells assessed as reduction in size of colonies at 0.25 to 10 uM incubated for 14 days with medium change every 3 days by crystal violet staining method; assay type: functional, cell-based; conditions: dose 0.25-10 µM, time 14.0 day
PA-1 [21] = experiment: Antitumor activity against human PA-1 cells xenografted in BALB/C nude mouse assessed as tumor growth inhibition at 150 mg/kg,po BID for 21 days; assay type: functional; conditions: PA-1, 504 h, time 21 day, read-out: TGI
OAW-42 = experiment: Antiproliferative activity against human OAW-42 cells assessed as inhibition of cell proliferation incubated for 72 hrs by MTT assay; assay type: functional, cell-based; conditions: OAW-42, 72 h
PA-1 [22] = experiment: Induction of apoptosis in human PA-1 cells assessed as early apoptotic cells at 40 uM incubated for 48 hrs by AnnexinV-FITC/PI staining based flow cytometry analysis (Rvb= 6.89%); assay type: functional
[23] = Half life in Sprague-Dawley rat at 5 mg/kg, iv and measured upto 24 hrs by LC-MS/MS analysis; assay type: ADME, organism-based; conditions: in vivo
[24] = tested on: Histone-lysine N-methyltransferase EZH2 (Homo sapiens), Q15910 [Y641N]; experiment: Inhibition of EZH2 […] mutant (unknown origin) at 1 nM by AlphaLlSA assay
Sequence of Histone-lysine N-methyltransferase EZH2 (Homo sapiens), Q15910 [Y641N] (Q15910 whole entry Y641N): as the sequence (Q15910 whole entry, looked up, the tested form may be a part) above, with Y641N counted along it

PA-1 [25] = experiment: Antiproliferative activity against human PA-1 cells assessed as inhibition of cell proliferation incubated for 72 hrs by MTT assay; assay type: functional, cell-based; conditions: PA-1, 72 h
[26] = target: Protein arginine N-methyltransferase 1 (Homo sapiens) (UniProt Q99873); experiment: Inhibition of PRMT1 (unknown origin) at 1 to 10 uM by AlphaLlSA assay; conditions: dose 1-10 µM
Sequence of Protein arginine N-methyltransferase 1 (Homo sapiens) (Q99873 whole entry, looked up): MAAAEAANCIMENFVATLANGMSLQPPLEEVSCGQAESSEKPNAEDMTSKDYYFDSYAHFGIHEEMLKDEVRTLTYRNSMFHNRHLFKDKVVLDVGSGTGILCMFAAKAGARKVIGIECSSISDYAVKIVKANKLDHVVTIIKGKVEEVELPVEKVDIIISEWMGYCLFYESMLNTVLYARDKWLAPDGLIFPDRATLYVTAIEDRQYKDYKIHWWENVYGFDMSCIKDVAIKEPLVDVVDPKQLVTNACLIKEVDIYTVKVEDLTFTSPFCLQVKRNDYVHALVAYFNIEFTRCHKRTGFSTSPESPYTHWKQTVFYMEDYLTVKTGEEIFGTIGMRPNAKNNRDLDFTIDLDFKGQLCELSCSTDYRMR

[27] = Toxicity in BALB/C nude mouse xenografted with human PA-1 cells assessed as pathological changes in liver at 75 to 150 mg/kg,po BID for 21 days by H&E staining based microscopic analysis; assay type: organism-based; conditions: in vivo, 504 h, dose 75-150 mg/kg, time 21 day
A2780 [28] = experiment: Inhibition of colony formation in human A2780 cells assessed as reduction in size of colonies at 0.25 to 10 uM incubated for 14 days with medium change every 3 days by crystal violet staining method; assay type: functional, cell-based; conditions: dose 0.25-10 µM, time 14.0 day
[29] = target: T1, Histone-lysine N-methyltransferase EZH2; experiment: Inhibition of EZH2 methyltransferase activity in human PA-1 cells assessed as reduction in H3K27me3 level at 10 uM incubated for 3 days followed by compound washout and measured after 4 days by Western blot analysis; assay type: cell-based; conditions: time 3.0 day
[30] = MRT(t) in Sprague-Dawley rat at 100 mg/kg, po and measured upto 24 hrs by LC-MS/MS analysis; assay type: ADME, organism-based; conditions: in vivo
Mus musculus = experiment: In vivo inhibition of EZH2 in human PA-1 cells xenografted in BALB/C nude mouse assessed as reduction in H3K27me3 expression level at 75 to 150 mg/kg,po BID for 21 days by immunohistochemical analysis; assay type: functional, organism-based; conditions: dose 75-150 mg/kg, time 21.0 day
PA-1 [31] = experiment: Induction of apoptosis in human PA-1 cells assessed as late apoptotic cells at 20 uM incubated for 48 hrs by AnnexinV-FITC/PI staining based flow cytometry analysis (Rvb= 3.09%); assay type: functional
PA-1 [32] = experiment: Induction of apoptosis in human PA-1 cells assessed as early apoptotic cells at 5 uM incubated for 48 hrs by AnnexinV-FITC/PI staining based flow cytometry analysis (Rvb= 6.89%); assay type: functional
[33] = Protein binding in Sprague-Dawley rat plasma at 2 uM incubated for 5 hrs by equilibrium dialysis based LC-MS/MS analysis; assay type: ADME, cell-free; conditions: read-out: PPB (converted)

- Tmax [4]: 4.8 min
- Cmax [5]: 22800 ng/mL
- Tmax [6]: 22.8 min
- Vdss [7]: 0.20228 L/kg
- IC50 (A2780 [8]): 11.2 µM
- Activity [10]: Active
- inhibition [12]: inactive
- inhibition [13]: Tde
- inhibition [14]: Active
- bioavailability [15]: 8.73%
- inhibition [17]: Dose-Dependent Effect
- AUC(0-t) at 24 h [19]: 12600 ng·h/mL
- t1/2 [23]: 36.6 min
- inhibition [24]: Active
- inhibition [26]: inactive
- inhibition [29]: Active
- MRT last at 24 h [30]: 104 min
- fraction unbound at 5 h, 2 µM [33]: 0.0022
SMILES: C=CC(=O)Nc1ccc(C)c(-c2cc(C(=O)NCc3c(C)cc(C)[nH]c3=O)c(C)c(N(CC)C3CCOCC3)c2)c1
- IC50 [1]: > 100 µM
- inhibition (A2780 [2]): Dose-Dependent Effect
- Activity [3]: Non-Toxic
- inhibition in vivo at 75 mg/kg (PA-1 [9]): 45.3%
- inhibition (PA-1 [11]): Dose-Dependent Effect
- Activity [16]: Non-Toxic
- Activity (PA-1 [18]): 2.21%
- inhibition (PA-1 [20]): Dose-Dependent Effect
- inhibition in vivo at 150 mg/kg (PA-1 [21]): 78.2%
- IC50 (OAW-42): > 100 µM
- Activity (PA-1 [22]): 87.19%
- IC50 (PA-1 [25]): 10.1 µM
- Activity [27]: Non-Toxic
- inhibition (A2780 [28]): Dose-Dependent Effect
- inhibition (Mus musculus): Active
- Activity (PA-1 [31]): 14.41%
- Activity (PA-1 [32]): 10.39%
